The source of these data is patent US20230265432A1, “METHODS AND COMPOSITIONS FOR TREATING ACUTE MYELOID LEUKEMIA” (Sanford Burnham Prebys Medical Discovery Institute, priority 2021, published 2023).

One assay has as its system HDAC. The settings on record: cited from earlier work.
The target in the next assay is JAK2 (Homo sapiens, UniProt O60674). The note with it: cited from earlier work.
A further assay concerns the target LSD1 (Homo sapiens, UniProt O60341). The settings on record: cited from earlier work.
For the next assay, the system named is primary AML blasts. Put plainly: FK228 dose response in patient AML cells (CellTiterGlo). Format: cell-based. The settings on record: Homo sapiens, 48 h. (In general: In ATP-based viability assays light output follows the ATP content of the culture.)
For assay [1], the system named is H3K9 dimethylation in MDA-MB231 cells. The note with it: cited from earlier work.
For a further assay, the system named is HL-60 cells. Put plainly: Viability of HL-60 cells expressing pLKO or shRNF5. The note with it: tunicamycin 2 μg/mL, RNF5-KD versus control.

By IC50 is commonly meant the concentration that inhibits the measured activity by half.

Chain of JAK2 (O60674 whole entry, species assumed): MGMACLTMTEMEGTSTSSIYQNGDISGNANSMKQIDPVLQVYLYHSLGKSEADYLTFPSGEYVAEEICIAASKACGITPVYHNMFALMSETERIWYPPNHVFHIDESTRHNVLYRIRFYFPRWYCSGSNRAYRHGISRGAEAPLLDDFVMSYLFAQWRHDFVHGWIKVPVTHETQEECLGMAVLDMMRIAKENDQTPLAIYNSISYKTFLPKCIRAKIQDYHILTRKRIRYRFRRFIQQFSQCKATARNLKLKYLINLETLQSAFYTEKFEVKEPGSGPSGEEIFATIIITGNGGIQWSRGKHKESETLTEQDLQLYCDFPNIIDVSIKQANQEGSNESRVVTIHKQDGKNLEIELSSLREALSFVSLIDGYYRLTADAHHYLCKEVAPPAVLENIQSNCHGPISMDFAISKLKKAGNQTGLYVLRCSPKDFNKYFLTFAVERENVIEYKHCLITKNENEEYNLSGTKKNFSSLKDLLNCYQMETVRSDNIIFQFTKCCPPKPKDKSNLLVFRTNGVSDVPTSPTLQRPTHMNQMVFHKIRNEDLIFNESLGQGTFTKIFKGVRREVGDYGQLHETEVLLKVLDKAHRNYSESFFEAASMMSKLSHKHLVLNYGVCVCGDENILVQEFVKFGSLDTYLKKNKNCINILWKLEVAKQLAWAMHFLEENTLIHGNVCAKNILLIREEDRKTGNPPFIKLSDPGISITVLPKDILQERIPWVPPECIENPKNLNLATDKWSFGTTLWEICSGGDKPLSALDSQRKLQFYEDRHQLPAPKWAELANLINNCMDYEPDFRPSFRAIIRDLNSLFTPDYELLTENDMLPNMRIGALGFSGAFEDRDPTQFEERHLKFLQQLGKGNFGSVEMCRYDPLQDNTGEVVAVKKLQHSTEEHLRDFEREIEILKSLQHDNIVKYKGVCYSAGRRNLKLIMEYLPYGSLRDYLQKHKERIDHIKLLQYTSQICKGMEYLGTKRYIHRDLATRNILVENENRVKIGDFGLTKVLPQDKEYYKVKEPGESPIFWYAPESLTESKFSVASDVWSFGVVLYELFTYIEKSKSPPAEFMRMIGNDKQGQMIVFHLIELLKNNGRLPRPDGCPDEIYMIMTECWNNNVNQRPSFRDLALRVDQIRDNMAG

On to `C#CCC(CCCCCC)C(=O)O` (stereo not drawn) [2-hexyl-4-Pentynoic Acid], for which the IC50 with HDAC was 13000 nM.

Turning to `CC(C)[C@H](C(=O)Nc1ccc(C(=O)NO)cc1)c1ccccc1` [AR-42], the IC50 in the assay with HDAC is 30 nM.

With `Cc1cc(Nc2nc(N[C@@H](C)c3ccc(F)cc3)c(C#N)cc2F)n[nH]1` [AZ 960], at JAK2, the IC50 was less than 3 nM and the “fold selective for JAK2 versus JAK3” value is on record as 3 fold.

Take `CN(C)c1ccc(C(=O)NCCCCCC(=O)NO)cc1` [CAY10398]: in the assay with HDAC, the IC50 was 10000 nM.

On to `CN1CCN(c2cccc(Nc3nc4c(-c5ccc(S(C)(=O)=O)cc5)cccn4n3)c2)CC1` [CEP-33779], for which, at JAK2, the IC50 was 1.8 nM; the “fold selective for JAK2 versus JAK1” value was “nM, >40- and >800-fold versus JAK1 and TYK2”; the “fold versus TYK2” value was “nM, >40- and >800-fold versus JAK1 and TYK2”.

`O=C(CCCCCCSc1ccc2ccccc2c1)NO` [HNHA]: in the assay with HDAC, the IC50 was 100 nM.

Turning to `O=C(/C=C/c1ccc(CN(CCO)CCc2c[nH]c3ccccc23)cc1)NO` [LAQ824 (Dacinostat), Dacinostat], in the assay on HDAC, the IC50 was 32 nM.

Regarding `N[C@H]1C[C@@H]1c1ccc(-c2cccc(O)c2)cc1` [OG-L002], on LSD1, the IC50 was 20 nM, the “fold selectivity over MAO-A” value is 69 fold and the “fold selectivity over MAO-B” value was 36 fold.

For `CCCCc1nc2cc(/C=C/C(=O)NO)ccc2n1CCN(CC)CC` [Pracinostat (SB939), Pracinostat], in the assay on HDAC, the IC50 was 40 to 140 nM.

In the case of `C/C=C1\NC(=O)[C@H]2CSSCC/C=C/[C@H](CC(=O)N[C@H](C(C)C)C(=O)N2)OC(=O)[C@H](C(C)C)NC1=O` [Romidepsin (FK228, Depsipeptide), Romidepsin], the IC50 in the assay on primary AML blasts (AML-013, high-expressing group) was 0.126 nM; in the assay with primary AML blasts (AML-037, low RNF5 and RBBP4, 48 h) it was 0.0398 nM; with primary AML blasts (AML-072B, high-expressing group), 0.251 nM; in the assay with primary AML blasts (AML-075B, low RNF5 and RBBP4, 48 h), 0.02 nM.

Turning to `C/C(=N\NC(=O)c1cccc(S(=O)(=O)N2CCOCC2)c1)c1cc(Cl)ccc1O` [SP2509], the IC50 at LSD1 is 13 nM.

As to `COc1cc2c(NC3CCN(C(C)C)CC3)nc(C3CCCCC3)nc2cc1OCCCN1CCCC1` [UNC0638], the IC50 in assay [1] is 81 nM.

For Tunicamycin, the viability entry with HL-60 cells is given as “decreased viability of RNF5-KD HL-60 cells”.
